The values that follow come from article PMC5382548 (Scientific Reports, 2015).

In assay [1] the test system is colon cancer cell lines with mutated KRAS. The experiment in a line: Anti-proliferative activity, colon cancer cell lines with mutated KRAS. The note with it: Homo sapiens; range over HCT116 and SW620. In kind it is cell-based. The text has this: These differences may be due to differing effects on cellular proliferation mechanisms, on cellular uptake and/or intracellular distribution. Assuming a passive diffusion membrane transport for IQcs, compound 2d is expected to accumulate more inside cells due to its predicted higher lipophilicity than compounds with an additional protonated basic group at physiologic pH (3d and 3e). Similarly, the tetra-cationic porphyrin TMPyP4, which is known to have low cell-membrane permeability, gave higher IC50 values.
HCT116 human colon carcinoma cells, SW620 human colorectal adenocarcinoma and HEK293 T human embryonic kidney cells were grown in Dulbecco's modified Eagle's medium (DMEM) supplemented with 10% fetal bovine serum, and 1% antibiotic/antimycotic (Invitrogen, Grand Island, NY, USA) and maintained at 37°C in a humidified atmosphere of 5% CO2. […] Following 72 h of compound exposure, cell viability was evaluated using the CellTiter 96 AQueous Non-Radioactive Cell Proliferation Assay (Promega, Madison, WI, USA), using 3-(4,5-dimethylthiazol-2-yl)-5-(3-carboxymethoxyphenyl)-2-(4-sulfophenyl)-2H-tetrazolium, inner salt (MTS) as previously described. Cell viability data were expressed as mean ± SEM or mean ± SD from at least three independent experiments. IC50 and IC65 values were determined using GaphPad Prism v.5.00 (GraphPad Software). […]

Another assay relates to KRAS mRNA in SW620 cells. Kind of assay: KRAS mRNA steady-state levels, Taqman real-time RT-PCR, SW620. The format is cell-based, human. The note with it: equitoxic (IC50) concentrations, 72 h. As for the experimental part:
The effects of compounds on KRAS transcription in colon cancer cells (HCT116 and SW620) were evaluated by quantifying KRAS mRNA steady-state levels using Taqman real-time RT-PCR.
(a) KRAS mRNA steady-state expression was evaluated by Taqman Real-time RT-PCR using specific Taqman Assays for KRAS and β-Actin for normalization. KRAS mRNA steady-state expression levels were calculated by the ΔΔCt method, using DMSO (vehicle control) for calibration; and (b) KRAS protein steady-state expression evaluated by immunoblot relative to control (DMSO vehicle) Results are expressed as mean ± SEM of at least three independent experiments; *p < 0.05 and §p < 0.01 from DMSO (vehicle control). […]
Taqman Real-time PCR reactions were performed using 1.5 µg of total RNA, using High Capacity RNA to cDNA kit, according to the manufacturer`s instruction. […] The comparative threshold cycle method was used to calculate the amplification factor, where the threshold cycle (Ct) is defined as the cycle number at which the fluorescence passes the fixed threshold intensity level. KRAS expression levels in different samples were calculated on the basis of ΔΔCt method. […]
Hoechst labeling of cells was used to detect apoptotic nuclei by evaluation of nuclear morphology under fluorescence microscopy. […] Fluorescent nuclei were scored and categorized according to the condensation and staining characteristics of […]

The test system of assay [2] is KRAS21R (DNA, G4) AGGGCGGTGTGGGAAGAGGGA
The experiment in a line: spectrofluorimetric titration, one-site saturation fit. The note with it: 60 mM K+; K-cacodylate pH 7.4, 25 °C; 1 μM compound; SD ≤ 0.2 × 10^6.

Regarding `CCN(CC)CCCNc1ccc2c(c1)c1[nH]c3ccccc3c1c[n+]2C` [2d], in assay [1], the IC50 (usually the midpoint of a concentration-inhibition curve) fell in the range of 140 to 500 nM. Also, the “Reduction of KRAS mRNA steady-state levels, SW620” value in the assay with KRAS mRNA in SW620 cells amounted to 90%.

Take `Cn1cc2c3ccccc3nc-2c2cc(Br)ccc21` [2a, 2-bromo-5-methyl-indolo[3,2-c]quinoline]: the Ka in assay [2] came to 1.7e+06 M⁻¹.

In the case of `CCN(CC)CCCNc1ccc2[nH]c3c(c[n+](C)c4ccc(NCCCN(CC)CC)cc34)c2c1.[Cl-]` [3d], in the assay on KRAS mRNA in SW620 cells, the “Reduction of KRAS mRNA steady-state levels, SW620” value came to 25%.
